Test results: paper PMC9705075, “In Vitro characterization of the endocrine disrupting effects of per- and poly-fluoroalkyl substances (PFASs) on the human androgen receptor” (Journal of hazardous materials, 2022)

What was measured:
[1] = target: T1, human androgen receptor (hAR) (Homo sapiens, UniProt P10275); experiment: AR-mediated luciferase reporter gene assay, antiandrogenic effects (co-culture with […] testosterone), MDA-kb2 cells; type: cell-based; details: for IC20: MDA-kb2, 24 h, read-out: Inhibition REC20
[2] = target: T1, human androgen receptor (hAR); experiment: Mechanism of AR inhibition: testosterone dose-response curves in presence of test chemical, luciferase reporter, MDA-kb2 cells; type: cell-based; details: highest noncytotoxic concentration: 15 μM NON, HEP, OCT, NNN; 1 μM FLO; 0.05 μM OHF
[3] = tested on: PSA, FKBP5 and AR mRNA in VCaP human prostate cancer cells; experiment: Expression of androgen responsive genes (real-time PCR) in VCaP cells; type: cell-based; details: 24 h; for testosterone induced expression of FKBP5 / testosterone induced expression of PSA: 1 and 5 μM PFAS with […] testosterone; for testosterone induced expression of FKBP5 / testosterone induced expression of PSA / expression of AR: 10% CD FBS; for expression of AR: PFAS (1 and 5 μM) or 50 nM OHF with […] testosterone
Protocol: VCaP cells were cultured in phenol red-free DMEM supplemented with 10% charcoal-dextran stripped FBS (10% CD FBS, Hyclone, USA) and 1% L-glutamine (Gibco, Grand Island, NY) for 3 days prior to PFAS treatment. Cells were plated at a density of 2.0 × 10^6 cells/well in 6-well plates (CellStar, Monroe, NC) and incubated 24 h. […] After the incubation, total RNA was extracted using the RNeasy Mini Kit (Qiagen, Germantown, MD). Briefly, 2 μg of total RNA were reverse transcribed to cDNA using the SuperScript IV VILO (Thermo Scientific, Waltham, MA) and subjected to real-time PCR (Stratagene MxP3005, Agilent Technologies, Palo Alto, CA). The cDNA was amplified in 10 μL of SYBR Green real-time PCR Master Mixes (Thermofisher Scientific, Waltham, MA) according to the manufacturer’s protocol. […] The fold change of the target genes was compared to the vehicle control using the 2^−ΔΔCt method ([Livak and Schmittgen, 2001]).
Fig. 4. […] Values are expressed as the mean fold change ± S.E.M. from three independent experiments. […] Significance levels are represented with asterisk as following: *p < 0.05, **p < 0.01, ***p < 0.001, and ****p < 0.0001. The Ptrend is determined based on linear regression analysis.

[4] = tested on: intracellular AR protein in VCaP cells; experiment: Immunoblotting of intracellular AR protein in VCaP cells; type: cell-based, human; details: 10% FBS, 48 h exposure to PFAS
Protocol: Cells were plated at a density of 2.0 × 10^6 cells/well in 6-well plates (CellStar, Monroe, NC) and incubated 24 h.
Values are expressed as the mean fold change ± S.E.M. from three independent experiments.

AR = tested on: AR; set-up: method as in Kjeldsen and Bonefeld-Jørgensen, 2013; details: in vitro study; ref Kjeldsen and Bonefeld-Jørgensen, 2013; cited from earlier work
MDA-kb2 cells = experiment: Cell viability (colorimetric MTT) assay; type: cell-based, human
Protocol: The cytotoxic effect of PFASs was measured by a colorimetric MTT assay as described previously ([Tachachartvanich et al., 2020]). Briefly, MDA-kb2 cells were plated at a density of 3.0 × 10^4 cells/well in clear 96-well plates (Thermo Scientific, Waltham, MA). After 24 h incubation, cells were treated with PFASs at concentrations ranging from 0.1 to 100 μM in triplicate per treatment. The optical density was assessed at 570 nm with reference wavelength of 650 nm using microplate spectrophotometer (Tecan Infinite® 200PRO, Austria). All cytotoxicity experiments were performed side-by-side with the corresponding cell culture assays and repeated at least three times in a separate independent setup.

AR and PSA expression = tested on: AR and PSA expression; set-up: method as in Kharlyngdoh et al. (2015); details: at 1 μM; ref Kharlyngdoh et al. (2015); cited from earlier work

T1 sequence (P10275 whole entry): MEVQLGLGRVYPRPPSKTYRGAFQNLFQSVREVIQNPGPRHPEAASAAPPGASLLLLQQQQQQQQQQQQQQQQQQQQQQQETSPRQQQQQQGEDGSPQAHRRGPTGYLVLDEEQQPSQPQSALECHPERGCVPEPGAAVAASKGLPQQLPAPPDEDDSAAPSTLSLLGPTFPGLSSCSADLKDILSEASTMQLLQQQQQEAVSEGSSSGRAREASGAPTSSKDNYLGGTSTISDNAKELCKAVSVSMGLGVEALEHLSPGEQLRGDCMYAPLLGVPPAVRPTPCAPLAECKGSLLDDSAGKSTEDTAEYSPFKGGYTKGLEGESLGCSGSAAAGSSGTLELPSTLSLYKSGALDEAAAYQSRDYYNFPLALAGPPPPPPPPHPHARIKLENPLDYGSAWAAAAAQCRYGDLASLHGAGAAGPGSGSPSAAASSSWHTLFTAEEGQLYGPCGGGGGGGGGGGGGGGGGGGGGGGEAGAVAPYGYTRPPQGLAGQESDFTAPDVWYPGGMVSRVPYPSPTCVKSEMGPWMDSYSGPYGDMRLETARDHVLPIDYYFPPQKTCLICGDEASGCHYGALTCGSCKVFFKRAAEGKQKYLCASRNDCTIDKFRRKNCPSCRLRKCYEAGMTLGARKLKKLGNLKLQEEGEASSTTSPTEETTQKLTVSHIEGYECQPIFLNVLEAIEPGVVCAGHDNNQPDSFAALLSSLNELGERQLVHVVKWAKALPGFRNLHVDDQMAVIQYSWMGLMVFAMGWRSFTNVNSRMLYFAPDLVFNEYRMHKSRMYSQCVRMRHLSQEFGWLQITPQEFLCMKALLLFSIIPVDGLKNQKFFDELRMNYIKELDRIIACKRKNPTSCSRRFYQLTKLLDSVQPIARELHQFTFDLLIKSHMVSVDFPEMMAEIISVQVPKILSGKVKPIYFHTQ

O=C(Nc1ccc([N+](=O)[O-])cc1)C(F)(F)C(F)(F)C(F)(F)C(F)(F)F [NNN, 2,2,3,3,4,4,5,5,5-Nonafluoro-N-(4 nitrophenyl)pentanamide]
IC20 [1]: 2.78 µM
inhibition at 10 µM ([1]; MDA-kb2, read-out: inhibition of AR transactivation): ~25%
effect on dose response curve of testosterone [2]: rightward parallel shift
AR expression at 1 μM ([3]; 1 μM with […] testosterone): did not significantly affect AR expression
testosterone induced expression of FKBP5 [3]: significantly and concentration dependently decreased
testosterone induced expression of PSA [3]: significantly and concentration dependently decreased
expression of AR [3]: upregulating the expression of AR
AR protein level, normal conditions [4]: did not significantly affect cellular AR protein levels

O=C(O)C(F)(F)C(F)(F)C(F)(F)C(F)(F)C(F)(F)C(F)(F)C(F)(F)C(F)(F)C(F)(F)F [PFDA, perfluorodecanoate]
RIC20, antiandrogenic effect (AR): ~24 µM

Oc1ccc(/N=N/c2ccc(-c3ccc(C(F)(F)C(F)(F)C(F)(F)F)cc3)cc2)c(F)c1 [FLO, 3-Fluoro-4-{(E)-[4'-(heptafluoropropyl) [1,1'-biphenyl]-4-yl]diazenyl}phenol]
effect on dose response curve of testosterone [2]: did not change the dose response curves
cytotoxicity (MDA-kb2 cells): relatively high cytotoxicity

C=CCOc1c(Br)cc(Br)cc1Br [ATE, allyl 2,4,6-tribromophenyl ether]
AR expression (AR and PSA expression): significantly increased AR expression

O=C(O)C(F)(F)C(F)(F)C(F)(F)C(F)(F)C(F)(F)C(F)(F)C(F)(F)C(F)(F)F [PFNA, perfluorononanoate]
RIC20, antiandrogenic effect (AR): ~44 µM

O=C(O)C(F)(F)C(F)(F)C(F)(F)C(F)(F)C(F)(F)C(F)(F)C(F)(F)F [PFOA, perfluorooctanoic acid]
RIC20, antiandrogenic effect (AR): around 10 μM

FC(F)(F)C(F)(F)C(F)(F)c1nc2ccccc2nc1-c1ccccc1 [HEP, 2-(Heptafluoropropyl)-3-phenylquinoxaline]
IC20 [1]: 3.08 µM
effect on dose response curve of testosterone [2]: rightward parallel shift
testosterone induced expression of FKBP5 [3]: significantly and concentration dependently decreased
testosterone induced expression of PSA [3]: significantly and concentration dependently decreased
AR protein level, normal conditions [4]: significantly decreased the AR protein

O=c1cc(C(F)(F)C(F)(F)C(F)(F)C(F)(F)F)c2cc3c4c(c2o1)CCCN4CCC3 [NON, 9-(Nonafluorobutyl)-2,3,6,7-tetrahydro-1H,5H,11H-pyrano[2,3-f]pyrido[3,2,1-ij]quinolin-11-one]
IC20 [1]: 10.5 µM
effect on dose response curve of testosterone [2]: rightward parallel shift
testosterone induced expression of FKBP5 [3]: significantly and concentration dependently decreased
testosterone induced expression of PSA [3]: significantly and concentration dependently decreased
AR protein level, normal conditions [4]: significantly decreased the AR protein

O=S(=O)(O)C(F)(F)C(F)(F)C(F)(F)C(F)(F)C(F)(F)C(F)(F)F [PFHxS, perfluorohexane sulfonate]
RIC20, antiandrogenic effect (AR): ~19 µM

CC(C)(O)C(=O)Nc1ccc([N+](=O)[O-])c(C(F)(F)F)c1 [OHF, hydroxyflutamide, reference compound]
effect on dose response curve of testosterone [2]: the most parallel shift
expression of AR [3]: upregulating the expression of AR

C=C(Br)COc1c(Br)cc(Br)cc1Br [BATE, 2-bromoallyl 2,4,6-tribromophenyl ether]
AR expression (AR and PSA expression): significantly increased AR expression

Fc1c(F)c(F)c2c(F)c(F)c(F)c(F)c2c1F [OCT, Octafluoronaphthalene]
effect on dose response curve of testosterone [2]: did not change the dose response curves
